SMILES strings stand for the structures.

Experimental findings from PMC7380196, “Unveiling the activation dynamics of a fold-switch bacterial glycosyltransferase by ^19F NMR” (The Journal of Biological Chemistry, 2020) are described below.

In this assay the target is T1, PimA (Mycolicibacterium smegmatis, UniProt A0QWG6).
T1 construct: recombinant from pET29a-pimA in E. coli BL21(DE3) pLysS; purified
T1 sequence (A0QWG6 1-386): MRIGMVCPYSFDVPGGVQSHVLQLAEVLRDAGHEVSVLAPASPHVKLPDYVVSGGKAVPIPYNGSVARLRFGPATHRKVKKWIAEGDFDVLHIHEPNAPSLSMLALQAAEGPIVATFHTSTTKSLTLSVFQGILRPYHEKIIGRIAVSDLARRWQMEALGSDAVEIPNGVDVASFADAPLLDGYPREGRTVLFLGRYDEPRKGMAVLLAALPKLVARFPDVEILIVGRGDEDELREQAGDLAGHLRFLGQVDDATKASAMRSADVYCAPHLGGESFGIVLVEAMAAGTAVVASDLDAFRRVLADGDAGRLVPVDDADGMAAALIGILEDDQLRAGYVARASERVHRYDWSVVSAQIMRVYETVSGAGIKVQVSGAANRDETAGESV
Put plainly: thermal unfolding by far-UV CD at […] nm. It counts as binding. Particulars: 10 mM Tris-HCl, pH 7.5; 10 uM protein, ligand 1:15.

As for `Nc1nc2c(ncn2[C@@H]2O[C@H](COP(=O)(O)OP(=O)(O)O)[C@@H](O)[C@H]2O)c(=O)[nH]1` [GDP], the Tm result is “after the addition of GDP, wild-type PimA, PimA^R144C, and PimA^R144C-TFA displayed a clear increase”.
